From US12624044B2, “SMARCA degraders and uses thereof” (Kymera Therapeutics, Inc., priority 2019, dated 2026)

What was measured:
SMARCA4 = target: T1, SMARCA4 (Homo sapiens, UniProt P51532); test: SMARCA4 Western blot MV4-11 degradation; type: cell-based; conditions: 24 h; for Dmax: MV4-11, MV4-11 cells, read-out: SMARCA4 WB MV411 degradation 24 h: Average Dmax %; for DC50: MV4-11 cells, read-out: SMARCA4 WB MV411 degradation 24 h: Average external-Abs DC50
T1 construct: SMARCA2 and SMARCA4 protein degradation in MV4-11 cells; endogenous in cells; host or cells: MV4-11
Procedure: Cells were seeded into 6-well plates (MV4-11: 4×10^6 cells/well/1 ml) and 1 ml of 2× compound solution was added into the well to make the final concentration and the plates were mixed well and incubated for 24 hours (No cytotoxicity was observed). The cell were collected with media and spun at 3000 rpm for 5 minutes. The supernatant was aspirated and the well and the cells were washed with cold PBS once and combined for centrifugation again; the supernatant aspirated again. 200 ul pre-chilled RIPAlysis buffer (Boston BioProducts BP-115D) with protease/phosphatase inhibitor (Roche 05892791001/Roche 04906837001) was directly added into the tube to lyze the cells for 20 minutes on ice. The cell lysate were collected into EP tubes and spun at 13000 rpm for 20 minutes and 72 ul supernatant was transferred to a fresh EP tube containing 18 ul of 5× loading buffer (Beyotime Bio P0015) to make the loading samples. The samples were heated to 100° C. for 10 minutes and cooled to RT and microcentrifuged. 20 ul of samples were loaded onto SDS-PAGE gel (Novex, WG1402BOX) and the gel was run at 80 V for 20 minutes and 120 V for 1.5 hours. The samples were electrotransfer to a NC membrane using wet-transfer method with 250 mA for 2.5 hours. The membrane was blocked with LICOR blocking buffer (LI-COR, 927-50000) for 1 hour. The membrane was washed three times with TBST (CST #9997S), 5 minutes each. Incubation was performed with primary antibody prepared in blocking buffer with 0.1% Tween-20 (Solarbio, P8220) at 4° C. overnight (Anti-SMARCA2/BRM antibody (ab15597) 1:500; Anti-BRG1 antibody [EPR3912] (ab108318) 1:1000; Rabbit anti-Baf180 antibody [EPR15860] (Abcam, ab196022) 1:1000; mouse anti-beta-Actin (8H10D10) (CST #3700) 1:10000). The membrane was washed three times with TBST, 5 minutes each. Incubation with secondary antibody was performed for 1 hour at RT (anti-rabbit IgG (Licor, 926-32211) 1:5000; anti-mouse IgG (LI-COR, 926-68070) 1:5000). The membrane was washed three times with TBST, 5 minutes each and lastly the LiCOR was read.
The letter codes for the percentage of SMARCA degradation after 24 hours (Dmax %) include: A (>90% degradation), B (>70-90% degradation), C (50-70% degradation), and D (<50% degradation).

SMARCA2 = SMARCA2 (Homo sapiens, UniProt P51531); test: MSD SMARCA2 degradation in NCI-H1299 cell line (24 h); type: cell-based; set-up: HC: NCI-H1299 cells treated with DMSO; host or cells: NCI-H1299; conditions: for Dmax: NCI-H1299, NCI-H1299 cells; for DC50: NCI-H1299 cells, read-out: SMARCA2 MSD H1299 degradation 24 h: External Abs-DC50
How it was run: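 NCI-H1299 cells treated 24 h with a 3-fold, 9-point compound dilution series, then lysed in RIPA with protease inhibitor. SMARCA2 in lysate-coated MSD plates detected with rabbit anti-SMARCA2 (0.3 ug/ml) and SULFO-TAG secondary. Relative SMARCA2 level normalized between DMSO-treated H1299 cells and SMARCA2-negative A2780 cells; Dmax % binned A–D.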

SMARCA2, sequence (P51531 whole entry): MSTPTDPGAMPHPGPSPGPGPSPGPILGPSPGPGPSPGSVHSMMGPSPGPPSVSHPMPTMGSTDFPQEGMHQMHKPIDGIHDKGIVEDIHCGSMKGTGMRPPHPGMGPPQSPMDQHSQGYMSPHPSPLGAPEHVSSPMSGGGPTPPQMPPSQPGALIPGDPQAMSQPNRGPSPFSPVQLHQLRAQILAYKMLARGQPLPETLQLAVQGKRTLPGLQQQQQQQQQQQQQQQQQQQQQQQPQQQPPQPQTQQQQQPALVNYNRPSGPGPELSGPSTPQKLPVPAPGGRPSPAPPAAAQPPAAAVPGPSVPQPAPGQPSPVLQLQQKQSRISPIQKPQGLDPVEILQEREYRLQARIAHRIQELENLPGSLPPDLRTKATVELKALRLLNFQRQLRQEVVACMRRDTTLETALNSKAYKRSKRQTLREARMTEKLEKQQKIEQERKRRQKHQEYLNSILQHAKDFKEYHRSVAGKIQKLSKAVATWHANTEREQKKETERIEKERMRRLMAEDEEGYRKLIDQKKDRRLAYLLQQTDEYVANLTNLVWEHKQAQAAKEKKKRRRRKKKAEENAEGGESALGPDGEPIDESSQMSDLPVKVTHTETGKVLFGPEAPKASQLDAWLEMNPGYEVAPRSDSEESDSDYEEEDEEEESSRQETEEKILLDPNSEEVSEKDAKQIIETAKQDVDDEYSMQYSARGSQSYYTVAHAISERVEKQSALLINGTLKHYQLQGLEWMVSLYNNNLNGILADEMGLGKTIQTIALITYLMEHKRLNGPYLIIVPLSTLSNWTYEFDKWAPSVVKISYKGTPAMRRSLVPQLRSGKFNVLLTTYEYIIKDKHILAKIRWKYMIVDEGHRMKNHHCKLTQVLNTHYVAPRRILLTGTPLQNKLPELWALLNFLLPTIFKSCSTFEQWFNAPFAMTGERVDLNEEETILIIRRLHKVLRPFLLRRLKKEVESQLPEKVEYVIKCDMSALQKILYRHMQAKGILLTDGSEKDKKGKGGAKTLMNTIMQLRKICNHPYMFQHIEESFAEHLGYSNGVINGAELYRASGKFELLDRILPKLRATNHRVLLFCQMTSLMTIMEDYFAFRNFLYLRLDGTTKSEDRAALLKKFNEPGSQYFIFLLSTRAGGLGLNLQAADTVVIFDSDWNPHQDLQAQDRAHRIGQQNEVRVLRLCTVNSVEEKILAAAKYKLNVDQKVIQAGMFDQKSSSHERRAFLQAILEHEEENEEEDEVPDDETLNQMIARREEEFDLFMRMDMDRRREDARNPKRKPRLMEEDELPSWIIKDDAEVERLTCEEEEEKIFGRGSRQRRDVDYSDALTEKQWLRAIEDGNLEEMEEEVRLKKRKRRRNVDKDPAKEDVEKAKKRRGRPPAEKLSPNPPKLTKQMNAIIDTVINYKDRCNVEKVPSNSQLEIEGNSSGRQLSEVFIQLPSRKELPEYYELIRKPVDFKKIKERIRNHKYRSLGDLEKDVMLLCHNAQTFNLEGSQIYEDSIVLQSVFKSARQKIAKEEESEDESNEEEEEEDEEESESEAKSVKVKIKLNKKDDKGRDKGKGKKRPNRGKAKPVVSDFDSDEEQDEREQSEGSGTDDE
T1 sequence (P51532 whole entry): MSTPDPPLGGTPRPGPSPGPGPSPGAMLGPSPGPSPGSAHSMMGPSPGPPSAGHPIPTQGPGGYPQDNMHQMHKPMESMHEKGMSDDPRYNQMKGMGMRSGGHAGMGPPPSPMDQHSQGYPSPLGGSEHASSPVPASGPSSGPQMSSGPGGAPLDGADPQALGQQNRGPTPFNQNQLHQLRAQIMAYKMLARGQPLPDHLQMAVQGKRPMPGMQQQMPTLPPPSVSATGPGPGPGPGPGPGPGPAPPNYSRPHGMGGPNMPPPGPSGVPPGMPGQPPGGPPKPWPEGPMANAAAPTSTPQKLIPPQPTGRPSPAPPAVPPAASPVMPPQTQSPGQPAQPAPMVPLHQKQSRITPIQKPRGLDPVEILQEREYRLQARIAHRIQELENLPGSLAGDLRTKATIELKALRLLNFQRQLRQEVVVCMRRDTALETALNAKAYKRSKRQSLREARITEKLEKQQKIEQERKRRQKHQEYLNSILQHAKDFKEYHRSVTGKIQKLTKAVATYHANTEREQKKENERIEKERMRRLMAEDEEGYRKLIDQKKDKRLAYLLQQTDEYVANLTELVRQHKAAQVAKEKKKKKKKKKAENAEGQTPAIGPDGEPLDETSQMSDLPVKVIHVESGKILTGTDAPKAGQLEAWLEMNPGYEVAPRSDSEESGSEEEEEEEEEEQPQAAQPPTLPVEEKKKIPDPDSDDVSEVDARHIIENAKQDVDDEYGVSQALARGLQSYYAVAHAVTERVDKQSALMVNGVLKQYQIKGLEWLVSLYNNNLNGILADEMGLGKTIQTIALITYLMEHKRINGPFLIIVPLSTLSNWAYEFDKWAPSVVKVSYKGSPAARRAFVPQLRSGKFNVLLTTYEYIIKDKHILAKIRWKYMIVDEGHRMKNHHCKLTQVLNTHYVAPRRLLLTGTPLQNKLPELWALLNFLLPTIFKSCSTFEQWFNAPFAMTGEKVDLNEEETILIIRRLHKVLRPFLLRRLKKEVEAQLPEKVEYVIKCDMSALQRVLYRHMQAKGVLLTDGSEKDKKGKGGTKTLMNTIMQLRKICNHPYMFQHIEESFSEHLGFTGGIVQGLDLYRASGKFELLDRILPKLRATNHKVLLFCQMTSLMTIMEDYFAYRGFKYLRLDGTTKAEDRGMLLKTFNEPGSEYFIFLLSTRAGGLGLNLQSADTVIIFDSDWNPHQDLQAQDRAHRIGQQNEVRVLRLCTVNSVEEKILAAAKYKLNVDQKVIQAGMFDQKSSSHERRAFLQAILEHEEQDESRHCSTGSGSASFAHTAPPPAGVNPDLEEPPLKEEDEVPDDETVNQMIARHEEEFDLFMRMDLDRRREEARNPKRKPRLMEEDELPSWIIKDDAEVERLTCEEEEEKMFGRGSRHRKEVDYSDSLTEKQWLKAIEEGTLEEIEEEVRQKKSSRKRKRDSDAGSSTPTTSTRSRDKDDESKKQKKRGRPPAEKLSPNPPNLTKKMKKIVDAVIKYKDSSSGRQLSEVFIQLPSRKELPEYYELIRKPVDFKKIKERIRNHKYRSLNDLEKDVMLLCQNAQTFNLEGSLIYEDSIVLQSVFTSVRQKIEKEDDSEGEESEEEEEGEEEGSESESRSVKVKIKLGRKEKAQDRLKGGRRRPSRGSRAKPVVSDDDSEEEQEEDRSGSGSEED

| Dmax (SMARCA4) [%] | DC50 (SMARCA4) [nM] | Dmax (SMARCA2) [%] | DC50 (SMARCA2) [nM] | SMILES |
| --- | --- | --- | --- | --- |
| < 50 | 100 to 500 | < 50 | 100 to 500 | Cn1c(=O)n(C2CCC(=O)NC2=O)c2ccc(CCCCCCCCCNC(=O)c3cccc(C#Cc4cc(NC(=O)Nc5ccnc(Cl)c5)ccn4)c3)cc21 (centres unmarked) [I-301, 3-[2-[4-[(2-chloro-4-pyridyl)carbamoylamino]-2-pyridyl]ethynyl]-N-[9-[1-(2,6-dioxo-3-piperidyl)-3-methyl-2-oxo-benzimidazol-5-yl]nonyl]benzamide] |
| 70 to 90 | 100 to 500 | > 90 | 100 to 500 | Cc1ncsc1-c1ccc(CNC(=O)[C@@H]2C[C@@H](O)CN2C(=O)[C@@H](NC(=O)CN2CCC(c3cnc(N4CCN(c5cc(-c6ccccc6O)nnc5N)CC4)nc3)CC2)C(C)(C)C)cc1 [I-451] |
| < 50 | 100 to 500 | < 50 | > 1000 | Cc1ncsc1-c1ccc(CNC(=O)[C@@H]2C[C@@H](O)CN2C(=O)[C@@H](NC(=O)CN2CCCC(n3cc(-c4cc(-c5ccccc5O)nnc4N)cn3)C2)C(C)(C)C)cc1 (some centres unmarked) [I-452] |
| < 50 | 100 to 500 | < 50 | > 1000 | Cc1ncsc1-c1ccc(CNC(=O)[C@@H]2C[C@@H](O)CN2C(=O)[C@@H](NC(=O)CCCCCN2CCCC(n3cc(-c4cc(-c5ccccc5O)nnc4N)cn3)C2)C(C)(C)C)cc1 (some centres unmarked) [I-456] |
| 70 to 90 | 100 to 500 | 70 to 90 | 501 to 1000 | Cc1ncsc1-c1ccc(CNC(=O)[C@@H]2C[C@@H](O)CN2C(=O)[C@@H](NC(=O)CN2CCC(n3cc(-c4cc(-c5ccccc5O)nnc4N)cn3)CC2)C(C)(C)C)cc1 [I-457] |
| < 50 | 100 to 500 | < 50 | 100 to 500 | Cc1ncsc1-c1ccc(CNC(=O)[C@@H]2C[C@@H](O)CN2C(=O)[C@@H](NC(=O)CCCN2CCC(n3cc(-c4cc(-c5ccccc5O)nnc4N)cn3)CC2)C(C)(C)C)cc1 [I-459] |
| < 50 | 100 to 500 | < 50 | 100 to 500 | Cc1ncsc1-c1ccc(CNC(=O)[C@@H]2C[C@@H](O)CN2C(=O)[C@@H](NC(=O)CCCCN2CCC(n3cc(-c4cc(-c5ccccc5O)nnc4N)cn3)CC2)C(C)(C)C)cc1 [I-460] |
| 50 to 70 | 100 to 500 | 50 to 70 | 501 to 1000 | Cc1ncsc1-c1ccc(CNC(=O)[C@@H]2C[C@@H](O)CN2C(=O)[C@@H](NC(=O)CCCCCN2CCC(n3cc(-c4cc(-c5ccccc5O)nnc4N)cn3)CC2)C(C)(C)C)cc1 [I-461] |
| < 50 | 100 to 500 | < 50 | > 1000 | Cc1ncsc1-c1ccc(CNC(=O)[C@@H]2C[C@@H](O)CN2C(=O)[C@@H](NC(=O)CN2CCC(Cn3cc(-c4cc(-c5ccccc5O)nnc4N)cn3)CC2)C(C)(C)C)cc1 [I-465] |
| < 50 | 100 to 500 | < 50 | 100 to 500 | Cc1ncsc1-c1ccc(CNC(=O)[C@@H]2C[C@@H](O)CN2C(=O)[C@@H](NC(=O)CCCN2CCC(Cn3cc(-c4cc(-c5ccccc5O)nnc4N)cn3)CC2)C(C)(C)C)cc1 [I-467] |
| < 50 | 100 to 500 | < 50 | > 1000 | Cc1ncsc1-c1ccc(CNC(=O)[C@@H]2C[C@@H](O)CN2C(=O)[C@@H](NC(=O)CCCCN2CCC(Cn3cc(-c4cc(-c5ccccc5O)nnc4N)cn3)CC2)C(C)(C)C)cc1 [I-468] |
| 50 to 70 | 100 to 500 | < 50 | 100 to 500 | Cc1ncsc1-c1ccc(CNC(=O)[C@@H]2C[C@@H](O)CN2C(=O)[C@@H](NC(=O)CN2CCC[C@@H](Cn3cc(-c4cc(-c5ccccc5O)nnc4N)cn3)C2)C(C)(C)C)cc1 [I-469] |
| 50 to 70 | 100 to 500 | < 50 | 100 to 500 | Cc1ncsc1-c1ccc(CNC(=O)[C@@H]2C[C@@H](O)CN2C(=O)[C@@H](NC(=O)CCCCN2CCC[C@@H](Cn3cc(-c4cc(-c5ccccc5O)nnc4N)cn3)C2)C(C)(C)C)cc1 [I-472] |
| < 50 | 100 to 500 | < 50 | 100 to 500 | Cc1ncsc1-c1ccc(CNC(=O)[C@@H]2C[C@@H](O)CN2C(=O)[C@@H](NC(=O)CN2CCN(Cc3ccc(-c4cc(-c5ccccc5O)nnc4N)cc3)CC2)C(C)(C)C)cc1 [I-473] |
| 50 to 70 | 100 to 500 | < 50 | 100 to 500 | Cc1ncsc1-c1ccc(CNC(=O)[C@@H]2C[C@@H](O)CN2C(=O)[C@@H](NC(=O)CCCCN2CCN(Cc3ccc(-c4cc(-c5ccccc5O)nnc4N)cc3)CC2)C(C)(C)C)cc1 [I-476] |

| SMILES | Dmax (SMARCA4) [%] | DC50 (SMARCA4) [nM] | Dmax (SMARCA2) [%] | DC50 (SMARCA2) [nM] |
| --- | --- | --- | --- | --- |
| Cn1c(=O)n(C2CCC(=O)NC2=O)c2ccc(CC(=O)N3CCN(Cc4cnc(N5C6CCC5CN(c5cc(-c7ccccc7O)nnc5N)C6)nc4)CC3)cc21 (centres unmarked) [I-294] | > 90 | < 100 | > 90 | < 100 |
| Cn1c(=O)n(C2CCC(=O)NC2=O)c2ccc(C#CCCNC(=O)Cc3cnc(N4C5CCC4CN(c4cc(-c6ccccc6O)nnc4N)C5)nc3)cc21 (centres unmarked) [I-295] | < 50 | < 100 | < 50 | > 1000 |
| Cn1c(=O)n(C2CCC(=O)NC2=O)c2ccc(CCCCNC(=O)Cc3cnc(N4C5CCC4CN(c4cc(-c6ccccc6O)nnc4N)C5)nc3)cc21 (centres unmarked) [I-296] | 70 to 90 | < 100 | > 90 | < 100 |
| CN1C(=O)CCC(n2c(=O)n(C)c3cc(CCCN4CCC(c5cnc(N6C7CCC6CN(c6cc(-c8ccccc8O)nnc6N)C7)nc5)CC4)ccc32)C1=O (centres unmarked) [I-297] | < 50 | – | < 50 | > 1000 |
| CN(CCCC#Cc1cnc(N2C3CCC2CN(c2cc(-c4ccccc4O)nnc2N)C3)nc1)Cc1ccc2c(c1)n(C)c(=O)n2C1CCC(=O)NC1=O (centres unmarked) [I-298] | > 90 | < 100 | > 90 | < 100 |
| CN(CCCc1cnc(N2C3CCC2CN(c2cc(-c4ccccc4O)nnc2N)C3)nc1)Cc1cccc2c1n(C)c(=O)n2C1CCC(=O)NC1=O (centres unmarked) [I-299] | > 90 | < 100 | > 90 | < 100 |
| Cn1c(=O)n(C2CCC(=O)NC2=O)c2cccc(C#CCN3CCCC(c4cnc(N5C6CCC5CN(c5cc(-c7ccccc7O)nnc5N)C6)nc4)C3)c21 (centres unmarked) [I-300] | 70 to 90 | < 100 | > 90 | < 100 |
| Cc1ncsc1-c1ccc(CNC(=O)[C@@H]2C[C@@H](O)CN2C(=O)[C@@H](NC(=O)CN2CCC(c3nccc(N4C5CCC4CN(c4cc(-c6ccccc6O)nnc4N)C5)n3)CC2)C(C)(C)C)cc1 [I-450] | 50 to 70 | 100 to 500 | < 50 | 100 to 500 |
| NCC#Cc1cnc(N2C3CCC2CN(c2cc(-c4ccccc4O)nnc2N)C3)nc1 [I-535, 2-[6-amino-5-[8-[5-(3-aminoprop-1-ynyl)pyrimidin-2-yl]-3,8-diazabicyclo[3.2.1]octan-3-yl]pyridazin-3-yl]phenol] | < 50 | < 100 | < 50 | > 1000 |
